From US11970521B2, “Neuroprotective beta amyloid core peptides and peptidomimetic derivatives” (priority 2016, dated 2024)
Where no end group is shown, it is not given here. [ ]: non-standard residue; d: D form.

Assays:
[1] = system: NG108-15 cells expressing α4β2-nAChRs; experiment: Cell stress (ROS) assay, α4β2-nAChR-transfected differentiated NG108-15 cells treated with Aβ1-42; type: cell-based, rodent; conditions: for Aβ1-42-induced ROS, co-treatment with stabilized peptides: daily 100 nM with 100 nM Aβ1-42, FIG. 9B, p<0.05 vs. Aβ1-42 alone
Text: (§1) In Vitro Neuronal Models. The studies were, performed on the NG108-15 rodent hybrid neuroblastoma cell line and primary hippocampal neuron cultures. The cell line can be differentiated, yielding axonal neurites with presynaptic-like varicosities that have the ability to release acetylcholine via exocytosis in response to stimulation. […] The primary hippocampal neuron cultures provide a physiologically relevant model.
(§2) Neuroblestoma Clonal Cell Culture and Transfection. Rodent hybrid neuroblastoma NG108-15 cells were used as a model nerve cell system allowing reconstitution with defined target receptors for Aβ. The cells were cultured in Dulbecco's modified Eagle's medium (DMEM) containing 15% fetal bovine serum (FBS) and differentiated in the presence of reduced serum (1% FBS) and 1 mM dibutyryl cyclic AMP for 72 h, Expression vectors (pcDNA3.1) containing mouse sequences for α4 and β2 nAChR subunits (1:4 ratio respectively) were transiently transfected into the cells using FuGENE HD (ThernioFisher, catalog #PRE2311) for 48 h. Mock-transfected NG108-15 cells, exposed only to FuGENE HO and not plasmid DNA, were used as controls.
Cell Stress Assays. Cells were plated, differentiated and treated for 3 days poor to assay. Cell count and fluorescence intensity of reactive oxygen species (ROS)-positive cells were assessed as a means to measure cellular oxidative stress using an Image-IT® LIVE Green Reactive Oxygen Species Detection Kit. In brief, the cells were treated for three days for NG108-15 cultures end five or ten days for primary hippocampal neuronal cultures. The media was changed every day, thus replenishing with fresh Aβ every 24 h, unless otherwise noted. Thereafter, the cells were incubated with carboxy-H2DCFDA (component A) at 37° C. for 30 min. During the last 5 min of incubation, 2 μg/ml of HOECHST stain (component B) was added to assess, in parallel, the integrity of the cell nuclei. The cells were washed twice with HBS and visualized using an Olympus IX81 epifluorescence microscope at excitation/emission of 495) 529 nm (ROS) and 350/461 nm (HOECHST), respectively.

α4β2-nAChRs = molecular target: T1, α4β2-nAChRs (Mus musculus, UniProt O70174+Q9ERK7); experiment: Ca2+ imaging (Fluo-4) in varicosities of NG108-15 cells expressing α4β2-nAChRs; type: cell-based; conditions: 100 nM; FIG. 13B
T1 construct: expressed in transfected cells; host or cells: differentiated NG108-15 rodent hybrid neuroblastoma cells, pcDNA3.1 vectors, transient transfection with FuGENE HD
Protocol: as §2
Ca^2+ Imaging Fluo-4, a Ca^2+ indicator dye, was loaded into cells on coverslips and visualization of [Ca^2+] was done via a Nikon PCM 2000 Cameleon AOTF confocal microscope. Each time-series was normalized to baseline fluorescence intensity at time zero (F/F0). After recording a baseline image series, each treatment was perfused over cells for 2.5 minutes or 15 minutes and quantification of relative fluorescence changes was analyzed through imageJ.

[2] = system: primary hippocampal neurons; experiment: Cell survival (cell counts), primary hippocampal neurons; type: cell-based, mouse; conditions: 1 μM with 1 μM Aβ1-42; FIG. 10B; p<0.0001
Protocol: (§3) Cell Survival. Cell survival was determined by counting cells everyday for 7 or 10 days of treatment. For each condition, all cells in 5 random fields of view were counted and averaged. Percent cell death was calculated based on daily cell counts as a proportion of starting cell count numbers (i.e. day 0).

[3] = system: NG108-15 cells expressing α4β2-nAChRs; experiment: Cell death (apoptosis) TUNEL assay, α4β2-nAChR-transfected NG108-15 cells; type: cell-based, rodent; conditions: nM co-treatment on day 1, 2 or 3 after start of daily Aβ1-42; FIG. 14A; p<0.0001
Protocol: as §2
Cell Death (Apoptosis) Assay. Cells were plated, differentiated and treated for either 3 or 4 days prior to assay. Apoptotic cells were detected as DNA fragmentation by Click-IT TUNEL Alexa fluor 488. In brief, the cells were treated for four days, exchanging media each day. After the fourth day of treatment, the cells were fixed with freshly prepared 4% paraformaldehyde in PBS at room temperature for 20 min and permeabilized with Triton X-100 (0.25% in PBS) for another 20 min. The cultures were then washed twice and incubated with 50 μL of terminal deoxynucleotidyi transferase reaction buffer (Component A) for 10 min at room temperature. […]

[4] = system: NG108-15 cells expressing α4β2-nAChRs; experiment: Cell survival (daily cell counts), NG108-15 cells with α4β2-nAChRs; type: cell-based, rodent; conditions: 100 nM co-treatment with 100 nM Aβ1-42; FIG. 10A; p<0.0001
Protocol: Neuroblestoma Clonal Cell Culture and Transfection. Rodent hybrid neuroblastoma NG108-15 cells were used as a model nerve cell system allowing reconstitution with defined target receptors for Aβ. […] Mock-transfected NG108-15 cells, exposed only to FuGENE HO and not plasmid DNA, were used as controls.
as §3

[5] = system: primary hippocampal neurons; experiment: Cell stress (ROS) assay in primary hippocampal neuron cultures; type: cell-based, mouse; conditions: 1 μM with 1 μM Aβ1-42, 5 or 10 days; p<0.0001
Text: Hippocampal Neuron Culture. All animal procedures followed an tACUC-approved protocol in accordance with animal welfare guidelines, Hippocampal neuron cultures even prepared from neonatal mouse pups (0-2d old) of either gender (roughly equivalent numbers) obtained from established colonies of wild-type B6.SJL (background) mice. Following rapid decapitation, brains were removed into ice-cold Neurobasal A medium (NB) containing B-27 supplement, 5% fetal bovine serum and Gentamicin (serum NB). Hippocampi were then isolated under a stereomicroscope. The hippocampi were digested with papain (Worthington, catalog #35N16202) in Hanks with 10 mM cysteine at 37° C. for 15 mins. The preparations were washed by centrifugation in serum NB. The cells were dissociated using sequential trituration with polished Pasteur pipettes of decreasing diameter and collected by low-speed centrifugation. The dissociated cells were preplated in standard tissue culture dishes to remove adherent non-neuronal cells (glia; fibroblasts) for 10-15 mins. […]

[6] = system: mock-transfected NG108-15 cells; experiment: Cell death (apoptosis) TUNEL assay, NG108-15 cells without nAChRs; type: cell-based; conditions: nM-μM co-treatment over four days with 1 μM Aβ1-42; FIG. 14B; trend of greater reduction at μM
Protocol: as §2

[7] = system: mock-transfected NG108-15 cells; experiment: Cell stress (ROS) assay, mock-transfected NG108-15 cells (absent nAChRs) treated with μM Aβ1-42; type: cell-based, rodent; conditions: co-treatment with nM-μM concentrations and 1 μM Aβ1-42; FIG. 6A; p<0.0001
Text: as §1, §2
Cell Stress Assays. […] Cell count and fluorescence intensity of reactive oxygen species (ROS)-positive cells were assessed as a means to measure cellular oxidative stress using an Image-IT® LIVE Green Reactive Oxygen Species Detection Kit. […]

T1 sequence (O70174 31-629): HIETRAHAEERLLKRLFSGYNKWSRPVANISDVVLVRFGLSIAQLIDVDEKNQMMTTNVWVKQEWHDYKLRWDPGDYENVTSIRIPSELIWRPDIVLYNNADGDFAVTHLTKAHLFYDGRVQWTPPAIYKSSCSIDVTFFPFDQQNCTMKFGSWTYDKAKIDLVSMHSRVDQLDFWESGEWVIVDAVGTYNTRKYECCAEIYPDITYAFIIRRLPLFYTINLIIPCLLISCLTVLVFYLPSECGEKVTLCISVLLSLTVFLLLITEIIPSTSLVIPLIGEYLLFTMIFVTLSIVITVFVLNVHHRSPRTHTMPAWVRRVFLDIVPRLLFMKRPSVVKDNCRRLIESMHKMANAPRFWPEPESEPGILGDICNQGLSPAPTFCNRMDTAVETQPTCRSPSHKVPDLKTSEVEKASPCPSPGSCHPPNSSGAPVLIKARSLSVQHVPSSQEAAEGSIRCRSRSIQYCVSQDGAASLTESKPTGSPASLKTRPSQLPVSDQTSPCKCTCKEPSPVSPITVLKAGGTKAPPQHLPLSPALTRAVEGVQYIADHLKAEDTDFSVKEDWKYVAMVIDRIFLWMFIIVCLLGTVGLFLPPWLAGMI
T1 sequence (Q9ERK7 26-501): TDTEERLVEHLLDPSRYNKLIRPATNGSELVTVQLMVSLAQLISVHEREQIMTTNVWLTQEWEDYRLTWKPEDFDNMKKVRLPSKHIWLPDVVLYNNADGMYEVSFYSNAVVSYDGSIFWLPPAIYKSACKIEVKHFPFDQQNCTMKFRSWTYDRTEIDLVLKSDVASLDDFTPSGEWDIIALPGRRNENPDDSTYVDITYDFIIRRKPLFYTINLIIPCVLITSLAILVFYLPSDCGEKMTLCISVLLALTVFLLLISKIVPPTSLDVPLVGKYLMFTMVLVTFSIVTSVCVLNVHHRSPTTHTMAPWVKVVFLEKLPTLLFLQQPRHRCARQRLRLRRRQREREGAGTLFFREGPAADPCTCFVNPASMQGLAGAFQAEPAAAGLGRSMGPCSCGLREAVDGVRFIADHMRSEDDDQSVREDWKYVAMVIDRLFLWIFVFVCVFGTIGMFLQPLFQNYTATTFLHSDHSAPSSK

Row | Substance | Aβ1-42-induced ROS, co-treatment with stabilized peptides [1] | Average peak Ca2+ response relative to N-Aβcore (α4β2-nAChRs) | Aβ1-42-induced cell death over 10-day treatments, co-treatment [2] | Aβ1-42-induced ROS, co-treatment or post-treatment (rescue) ([1]; nM concentrations, co-treatment or rescue for 3-, 2- or 1-day, 100 nM Aβ1-42, FIG. 5A, p<0.0001) | Aβ1-42-induced apoptosis (TUNEL staining) [3] | Aβ1-42-induced cell death at 7 days, co-treatment [4] | Aβ1-42-induced ROS in primary neurons, co-treatment [5] | Aβ1-42-induced DNA-fragmentation in absence of nAChRs [6] | Aβ1-42-induced oxidative stress (ROS) in absence of nAChRs [7]
1 | Capped-D-[Aβcore]: D-enantiomer N-Aβcore with N-terminal acetylation and C-terminal amidation (Ac-[dY][dE][dV][dH][dH][dQ]-NH2; SMILES CC(=O)N[C@H](Cc1ccc(O)cc1)C(=O)N[C@H](CCC(=O)O)C(=O)N[C@@H](C(=O)N[C@H](Cc1c[nH]cn1)C(=O)N[C@H](Cc1c[nH]cn1)C(=O)N[C@H](CCC(N)=O)C(N)=O)C(C)C) | reduces ROS | retains activity |  |  |  |  |  |  | 
2 | D-[Aβcore]: N-Aβcore converted from L-configuration to D-configuration for each amino acid ([dY][dE][dV][dH][dH][dQ]) | reduces ROS | retains activity |  |  |  |  |  |  | 
3 | Tyrosine-Glutamate-Valine-Histidine-Histidine-Glutamine [N-Aβcore] |  |  | protected primary hippocampal neurons against β1-42-induced cell death | reduced Aβ1-42-induced ROS back to baseline levels | reduced apoptosis compared to Aβ1-42 alone | able to fully protect against Aβ1-42-induced cell death | reduced the levels of ROS down to untreated (baseline) levels | reduced DNA-fragmentation compared to Aβ1-42 alone | reduced this oxidative stress compared to Aβ1-42 alone
4 | capped-N-Aβcore: N-Aβcore with N-terminus capped with an acetyl group and C-terminus with an amide group (Ac-YEVHHQ-NH2) | reduces ROS | retained its potent activity |  |  |  |  |  |  | 
